From publication PMC9142922, “Galactosylated Prodrugs: A Strategy to Improve the Profile of Nonsteroidal Anti-Inflammatory Drugs” (Pharmaceuticals, 2022)

What was measured:
[1] = tested on: acetic-acid-induced writhing in mice; assay: Acetic-acid-induced writhing test; format: in vivo, CD1 mice; conditions: oral IbuGAL 17.8, IndoGAL 14.5, OkyGAL 16.4, FluGAL 16.7 mg/kg; 0.6% acetic acid i.p.; 48 h
Description: The number of acetic-acid-induced abdominal stretches can be evaluated in Figure 3. Control mice received an intraperitoneal injection of 0.6% acetic acid (10 mL/kg). […]
Figure 5 (a–d). Total number of writhing episodes within 20 min after acetic acid injection. […] Data are expressed as means ± S.E.M. of 6 animals. *** p < 0.001, ** p < 0.01 vs. Control.
The acetic-acid-induced writhing test was performed as reported previously. […] The number of abdominal constrictions and extensions of the trunk and hind limbs were counted for each group of mice, starting from 5 min after the injection of acetic acid up to 20 min afterwards, and expressed as the number of writhing episodes.

[2] = Ex vivo permeation across excised rat small intestine (non-everted intestinal sac); format: in vitro ADME, male Wistar rats; conditions: compound filled into the sac, 5 mg/Kg in PBS + methocel 3%, 37 °C, 2 h; for Fraction Absorbed (Fa) ± SE, Duodenum: rat duodenum; for Fraction Absorbed (Fa) ± SE, Ileum: rat ileum; for Fraction Absorbed (Fa) ± SE, Jejunum: rat jejunum
Description: The permeability of the galactosylated prodrugs and the parent drugs through the rat small intestine was assessed ex vivo using the non-everted intestinal sac method. Despite some shortcomings (e.g., the interruption of normal blood flow, lack of a nervous system) this test is widely used to investigate the passive absorption of molecules and can provide further data when equipped with a mucus layer, which includes proteins of drug transport and metabolism.
A suspension of the tested compounds (5 mg/Kg in PBS + methocel 3%) was syringed into intestinal sacs that consisted of different segments of rat small intestine (duodenum, jejunum, ileum). The compound-enriched tissues were incubated at 37 °C for 2 h.
In order to verify the presence of the galactosylated compounds in the intestinal tissues, the intestinal sacs were opened at the end of the incubation period, washed with fresh buffer and homogenized in ethanol and the supernatant was dried. The concentrations of the galactosylated prodrugs and the prodrug-derived parent drugs were quantified using RP-HPLC (Figure 3a–d).
An evaluation of ex vivo absorption was carried out using permeation measurements in excised rat small intestines, as previously published, with some modifications. Briefly, male Wistar rats (200–250 g) were anesthetized with isoflurane, decapitated and exsanguinated. Freshly excised rat duodenum, jejunum and ileum tissue was washed with Krebs–Ringer buffer (KRB) and cut into pieces of 4–5 cm. Then, 0.2 mL of a suspension containing the compounds (5 mg/Kg, PBS + Methocel 3%) were syringed into intestinal sacs and the compound-enriched tissues were incubated in oxygenated KRB (10 mL) at 37 °C with smooth shaking. […] Tests were carried out in triplicate for each compound on three intestinal segments from three different rats. The concentration in the incubation buffer was quantified via RP-HPLC, as reported above.
At the end of the incubation period, the intestinal sacs were opened, washed with fresh buffer, homogenized in ethanol (1 mL, UltraTurrax) and centrifuged at 13,000× g for 5 min and the supernatant was dried with nitrogen. After resolubilization in 0.5 mL of methanol, the concentrations of the galactosylated prodrugs and prodrug-derived parent drugs were quantified using RP-HPLC.

Row | Fraction Absorbed (Fa) ± SE, Duodenum [2] | Fraction Absorbed (Fa) ± SE, Ileum [2] | Fraction Absorbed (Fa) ± SE, Jejunum [2] | Structure (SMILES) | writhing responses after 48 h vs control [1]
1 | 0.060 ± 0.014 | 0.033 ± 0.008 | 0.031 ± 0.015 | CC(C(=O)OC[C@H]1OC(O)[C@H](O)[C@@H](O)[C@H]1O)c1ccc(-c2ccccc2)c(F)c1 (some centres unmarked) [FluGAL] | significant decrease
2 | 0.013 ± 0.006 | 0.031 ± 0.016 | 0.026 ± 0.014 | CC(C)Cc1ccc(C(C)C(=O)OC[C@H]2OC(O)[C@H](O)[C@@H](O)[C@H]2O)cc1 (some centres unmarked) [IbuGAL] | significant decrease
